Results on four compounds are retold here after patent publication US10578608B1, “Tools to detect, track and target cancer cells in vivo” (The Regents of the University of California, priority 2015, dated 2020).

Entries after “also recorded” stand apart in the source; their conditions may differ. Structures can show the parent of a compound that is named as a salt. k = constrained ethyl (cEt); d = 2'-deoxy (DNA)

One series relates to MSI1 RNA. Nature of the series: MSI1 expression after ASO free uptake (q-RT-PCR). The class given is cell-based, human. The following applies: 24 hours, MIA PaCa-2 cells. Here is the method:
(FIG. 8 F to FIG. 8H) Real time PCR analysis of Msi expression following ASO free uptake in MIA PaCa-2 cells. MIA PaCa-2 cells were treated with 2 Gen 2.5 cEt ASOx target MSI1 or Control Gen 2.5 ASO for 24 hours, RNA was isolated and target knockdown (MSI1 RNA level) was determined by q-RT-PCR. IC50 values for each ASO were calculated using GraphPad Prism software; each treatment condition was performed in triplicate. (FIG. 8I) Colony formation assay in MSI1 ASO-treated MIA PaCa-2 cells after weekly delivery of control or MSI1 ASOs; colonies were counted after 4 weeks; n=3 for each ASO tested. (FIG. 8J) In vivo tracking of tumor volume in MSI1 ASO treated MIA PaCa-2 tumors with intratumoral delivery of control or MSI1 ASOs every day for 5 days followed by 2 days off; n=5 for each ASO tested. Nonlinear regression was used to determine the difference in slope between Control ASO and MSI1-ASO-1 (p<0.001). (FIG. 8K) In vivo tracking of tumor volume of primary KP^f/fC tumors with intratumoral delivery of control ASO or MSI1 ASOs following tumor establishment (n=4). […]
To identify human Msi ASO inhibitors, rapid throughput screens were performed to identify effective ASOs as previously described (Wang, J. C. Y. & Dick, J. E. Cancer stem cells: lessons from leukemia. Trends in Cell Biology 15, 494-501 (2005); Reya, T., Morrison, S. J., Clarke, M. F. & Weissman, I. L. Stem cells, cancer, and cancer stem cells. Nature 414(6859):105-11 (2001); Carroll, J. B. et al. Potent and Selective Antisense Oligonucleotides Targeting Single-Nucleotide Polymorphisms in the Huntington Disease Gene/Allele-Specific Silencing of Mutant Huntingtin. Molecular Therapy 19, 2178-2185 (2009); Samuel, V. T. et al. Targeting foxo1 in mice using antisense oligonucleotide improves hepatic and peripheral insulin action. […] Gene expression was assessed with taqman probes for MSI1 and MSI2. […] Colonies were counted 21 days after the first ASO treatment. […] Tumor measurements were recorded every 3 days. […]

A further series has as its system blast crisis CML. The experiment in a line: In vivo identification of therapy-resistant residual leukemia cells after Gleevec. The settings on record: Gleevec 150 mg/kg daily oral gavage, NSG mice. Details: species or system mouse. As to the method:
(FIG. 41A) The strategy used to track residual leukemia cells in vivo. KLS cells isolated from Msi2^GFP/Actb-DsRed mice were co-infected with BCR-ABL1 and NUP98-HOXA9 and subsequently transplanted into NOD-Scid IL2Rg^null (NSG) recipient mice. Fourteen days post-transplantation (D14), recipient mice were treated daily with Gleevec or vehicle alone (control) for […] and analyzed by flow cytometry on D20. (FIG. 41B) Average frequency of Msi2+ (% GFP^+) leukemia cells determined at various anatomic sites from mice with blast crisis CML (n=3 mice). (FIG. 41C) Extent of residual disease at different anatomic sites following Gleevec treatment.
To test this, REM2 mice were crossed with mice expressing dsRed under the control of a ubiquitous promoter (Vintersten et al., 2004). […]
To determine sites that harbor therapy-resistant cells, bone marrow-derived KLS cells were isolated and sorted from Msi2^GFP/Acb-DsRed mice and cultured in X-Vivo 15 media (Lonza) supplemented with 50 μM 2-mercaptoethanol, 10% (vol/vol) fetal bovine serum, SCF (100 ng/ml, R&D Systems) and TPO (20 ng/ml, R&D Systems). […] Fifteen days post-transplantation (D15), recipient mice were treated daily with Gleevec (150 mg/kg) or H2O (control) via oral gavage for five consecutive days (D15 to D19) and analyzed by flow cytometry on D20.

The subject of a further series is blast crisis CML cells. The following applies: versus 2-fold difference without treatment.
In a further series the test system is pancreatic cancer. The following applies: cited from earlier work.
Series [1] concerns REM2-KPf/fC pancreatic tumors. The experiment in a line: In vivo drug therapy of tumor-bearing REM2-KPf/fC mice, reporter frequency by flow cytometry. Details: species or system mouse. The following applies: increasing doses (200 or 500 mg/kg IP). The text has this: The development of the reporter gave us a unique opportunity to determine whether it could be used as a new image based tool to identify therapy resistant cells in pancreatic cancer. The chemotherapeutic agent gemcitabine remains the standard of care for adjuvant treatment of pancreatic cancer and is the most commonly used single agent in the treatment of advanced disease. Despite this, clinical response rates to gemcitabine are below 10% and it fails to prevent relapse after surgery in 85% of patients. Gemcitabine was delivered to tumor-bearing REM2-KPf/fC mice in vivo at increasing doses to determine the composition of residual disease. […] Importantly, these experiments identify Msi reporter positive cells as the predominant gemcitabine resistant population.
9-10 week old REM2-KP^f/fC mice were treated with Gemcitabine alone or in combination with Crizotinib or iBet762 for 6 days. On day 6, tumors were removed, dissociated (as described above), counted for total cellular content, stained with anti-mouse EpCAM antibody and analyzed for reporter expression by flow cytometry. Gemcitabine (Sigma, G6423) was resuspended in H2O at 20 mg/ml and delivered at 200 mg/kg or 500 mg/kg by IP injection twice over 6 days (on day 0 and 3). […]
Background: A flow cytometer gives signals particle by particle.

The test system of series [2] is Msi2 Reporter KPf/fC cells. The experiment in a line: In vitro gemcitabine treatment with live imaging of Msi2 reporter KPf/fC cells. It counts as cell-based, mouse. The following applies: 10 μM gemcitabine, imaged up to 48 h.

From the text for blast crisis CML cells: To account for any differences in cell survival between GFP+ and GFP− cells that is solely due to differences in differentiation status, we specifically analyzed cell survival of GFP+ and GFP− leukemia cells within the lineage-negative (Lin−) fraction.
To account for any differences in cell survival between GFP^+ and GFP^− cells that is solely due to differences in differentiation status, we specifically analyzed cell survival of GFP^+ and GFP^− leukemia cells within the lineage-negative (Lin^−) fraction.
Cells were then washed and stained with antibodies against lineage markers. Apoptosis assays were performed by staining cells with Annexin-V (BD Pharmingen).

As to “5′-GGCTACTACGCCGTCA-3′ (sugars from the 5' end k3 d10 k3, backbone and methylation of C not given here) [Control ASOs]”, the “MSI1 expression in cell lines after ASO treatment” value in the series on MSI1 RNA was “did not suppress MSI1 expression”.
Regarding “5′-TTACATATGATACAGG-3′ (sugars from the 5' end k3 d10 k3, backbone and methylation of C not given here) [ASO-2]”, in the series with MSI1 RNA, the “MSI1 expression in cell lines after ASO treatment” value is “inhibited MSI1 expression”.
With `Cc1ccc(NC(=O)c2ccc(CN3CCN(C)CC3)cc2)cc1Nc1nccc(-c2cccnc2)n1` [imatinib, imatinib mesylate], the “GFP+ leukemic cell population remaining following imatinib treatment” value was about 37% in the series with blast crisis CML (calvarium, femur, tibia, sternum or pelvis) and about 60% in the series on blast crisis CML (spleen). Besides, the “Increase in difference in cell survival between Lin− GFP+ and Lin− GFP− cells following imatinib treatment” value in the series on blast crisis CML cells was found to be 3 fold.
Regarding `Nc1ccn([C@@H]2O[C@H](CO)[C@@H](O)C2(F)F)c(=O)n1` [gemcitabine, Gemcitabine], the “Patients in whom it fails to prevent relapse after surgery” value in the series on pancreatic cancer (adjuvant) is recorded as 85%. Besides, the Clinical response rates result in the series with pancreatic cancer (pancreatic cancer patients) is “below 10%”. In series [1], the “Effect on GFP+ (Msi2 reporter+) tumor cells” value was “resistant and remained viable; also recorded: preferential survival”; the “Effect on GFP− (Msi2 reporter−) tumor cells” value is “sensitive to gemcitabine and were preferentially eliminated”. Also, the “Msi2 expression in Msi2 reporter− KPf/fC cells after in vitro treatment” value in series [2] is reported as “do not turn on Msi2 expression”.
